# Tested on: test plant species
# Assay: Post-emergent herbicidal activity test (greenhouse, foliar spray, visual growth reduction)
# Assay type: in vivo
# Conditions: post-emergence, 336 h, ALOMY: blackgrass (Alopecurus myosuroides), 140 g ai/ha, 14 days after application, read-out: Visual Growth Reduction (%) 14 Days After Application, ALOMY
# How it was run: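 Seedlings were raised 7-21 d in a greenhouse under a 15 h photoperiod until the first or second true leaf. Each compound, dissolved in acetone:DMSO 97:3 and diluted into a surfactant-containing spray mixture, was then applied at 187 L/ha. Plants were subirrigated, and growth reduction was scored visually at 14 d.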
row,Compound,pest or weed control at 140 g/ha [%]
1,"C#Cc1ccc(-c2ccc(Cl)c(C(=O)OC)n2)c(Cl)c1 [F18, Methyl 3-chloro-6-(2-chloro-4-ethynylphenyl) picolinate]",0 to 29
2,COC(=O)c1nc(-c2ccc(OC(F)F)cc2OC)c(F)cc1Cl [F161 (F393)],0 to 29
3,"COC(=O)c1nc(-c2ccc(Cl)c3c2OC(F)(F)O3)ccc1Cl [F68, Methyl 3-chloro-6-(7-chloro-2,2-difluorobenzo[d] [1,3]dioxol-4-yl)picolinate]",0 to 29
4,"COC(=O)c1nc(-c2c(Cl)cc(C(F)(F)F)cc2SC)ccc1Cl [F122, methyl 3-chloro-6-(2-chloro-6-(methylthio)-4-(trifluoromethyl)phenyl)picolinate]",0 to 29

# Same assay, conditions: post-emergence, 336 h, AMARE: redroot pigweed (Amaranthus retroflexus), 140 g ai/ha, 14 days after application, read-out: Visual Growth Reduction (%) 14 Days After Application, AMARE
row,Compound,pest or weed control at 140 g/ha [%]
1,"C#Cc1ccc(-c2ccc(Cl)c(C(=O)OC)n2)c(Cl)c1 [F18, Methyl 3-chloro-6-(2-chloro-4-ethynylphenyl) picolinate]",0 to 29
2,COC(=O)c1nc(-c2ccc(OC(F)F)cc2OC)c(F)cc1Cl [F161 (F393)],95 to 100
3,"COC(=O)c1nc(-c2ccc(Cl)c3c2OC(F)(F)O3)ccc1Cl [F68, Methyl 3-chloro-6-(7-chloro-2,2-difluorobenzo[d] [1,3]dioxol-4-yl)picolinate]",0 to 29
4,"COC(=O)c1nc(-c2c(Cl)cc(C(F)(F)F)cc2SC)ccc1Cl [F122, methyl 3-chloro-6-(2-chloro-6-(methylthio)-4-(trifluoromethyl)phenyl)picolinate]",95 to 100

# Same assay, conditions: post-emergence, 336 h, AVEFA: wild oat (Avena fatua), 140 g ai/ha, 14 days after application, read-out: Visual Growth Reduction (%) 14 Days After Application, AVEFA
row,Compound,pest or weed control at 140 g/ha [%]
1,"C#Cc1ccc(-c2ccc(Cl)c(C(=O)OC)n2)c(Cl)c1 [F18, Methyl 3-chloro-6-(2-chloro-4-ethynylphenyl) picolinate]",0 to 29
2,COC(=O)c1nc(-c2ccc(OC(F)F)cc2OC)c(F)cc1Cl [F161 (F393)],75 to 84
3,"COC(=O)c1nc(-c2ccc(Cl)c3c2OC(F)(F)O3)ccc1Cl [F68, Methyl 3-chloro-6-(7-chloro-2,2-difluorobenzo[d] [1,3]dioxol-4-yl)picolinate]",0 to 29
4,"COC(=O)c1nc(-c2c(Cl)cc(C(F)(F)F)cc2SC)ccc1Cl [F122, methyl 3-chloro-6-(2-chloro-6-(methylthio)-4-(trifluoromethyl)phenyl)picolinate]",0 to 29

# Same assay, conditions: post-emergence, 336 h, CHEAL: lambsquarters (Chenopodium album), 140 g ai/ha, 14 days after application, read-out: Visual Growth Reduction (%) 14 Days After Application, CHEAL
row,Compound,pest or weed control at 140 g/ha [%]
1,"C#Cc1ccc(-c2ccc(Cl)c(C(=O)OC)n2)c(Cl)c1 [F18, Methyl 3-chloro-6-(2-chloro-4-ethynylphenyl) picolinate]",0 to 29
2,COC(=O)c1nc(-c2ccc(OC(F)F)cc2OC)c(F)cc1Cl [F161 (F393)],85 to 94
3,"COC(=O)c1nc(-c2ccc(Cl)c3c2OC(F)(F)O3)ccc1Cl [F68, Methyl 3-chloro-6-(7-chloro-2,2-difluorobenzo[d] [1,3]dioxol-4-yl)picolinate]",0 to 29
4,"COC(=O)c1nc(-c2c(Cl)cc(C(F)(F)F)cc2SC)ccc1Cl [F122, methyl 3-chloro-6-(2-chloro-6-(methylthio)-4-(trifluoromethyl)phenyl)picolinate]",60 to 74

# Same assay, conditions: post-emergence, 336 h, CIRAR: canada thistle (Cirsium arvense), 140 g ai/ha, 14 days after application, read-out: Visual Growth Reduction (%) 14 Days After Application, CIRAR
row,Compound,pest or weed control at 140 g/ha [%]
1,"C#Cc1ccc(-c2ccc(Cl)c(C(=O)OC)n2)c(Cl)c1 [F18, Methyl 3-chloro-6-(2-chloro-4-ethynylphenyl) picolinate]",0 to 29
2,COC(=O)c1nc(-c2ccc(OC(F)F)cc2OC)c(F)cc1Cl [F161 (F393)],85 to 94
3,"COC(=O)c1nc(-c2ccc(Cl)c3c2OC(F)(F)O3)ccc1Cl [F68, Methyl 3-chloro-6-(7-chloro-2,2-difluorobenzo[d] [1,3]dioxol-4-yl)picolinate]",0 to 29
4,"COC(=O)c1nc(-c2c(Cl)cc(C(F)(F)F)cc2SC)ccc1Cl [F122, methyl 3-chloro-6-(2-chloro-6-(methylthio)-4-(trifluoromethyl)phenyl)picolinate]",60 to 74

# Same assay, conditions: post-emergence, 336 h, CYPES: yellow nutsedge (Cyperus esculentus), 140 g ai/ha, 14 days after application, read-out: Visual Growth Reduction (%) 14 Days After Application, CYPES
row,Compound,pest or weed control at 140 g/ha [%]
1,"C#Cc1ccc(-c2ccc(Cl)c(C(=O)OC)n2)c(Cl)c1 [F18, Methyl 3-chloro-6-(2-chloro-4-ethynylphenyl) picolinate]",0 to 29
2,COC(=O)c1nc(-c2ccc(OC(F)F)cc2OC)c(F)cc1Cl [F161 (F393)],0 to 29
3,"COC(=O)c1nc(-c2c(Cl)cc(C(F)(F)F)cc2SC)ccc1Cl [F122, methyl 3-chloro-6-(2-chloro-6-(methylthio)-4-(trifluoromethyl)phenyl)picolinate]",0 to 29

# Same assay, conditions: post-emergence, 336 h, DIGSA: crabgrass (Digitaria sanguinalis), 140 g ai/ha, 14 days after application, read-out: Visual Growth Reduction (%) 14 Days After Application, DIGSA
row,Compound,pest or weed control at 140 g/ha [%]
1,"C#Cc1ccc(-c2ccc(Cl)c(C(=O)OC)n2)c(Cl)c1 [F18, Methyl 3-chloro-6-(2-chloro-4-ethynylphenyl) picolinate]",0 to 29
2,COC(=O)c1nc(-c2ccc(OC(F)F)cc2OC)c(F)cc1Cl [F161 (F393)],45 to 59
3,"COC(=O)c1nc(-c2ccc(Cl)c3c2OC(F)(F)O3)ccc1Cl [F68, Methyl 3-chloro-6-(7-chloro-2,2-difluorobenzo[d] [1,3]dioxol-4-yl)picolinate]",0 to 29
4,"COC(=O)c1nc(-c2c(Cl)cc(C(F)(F)F)cc2SC)ccc1Cl [F122, methyl 3-chloro-6-(2-chloro-6-(methylthio)-4-(trifluoromethyl)phenyl)picolinate]",30 to 44

# Same assay, conditions: post-emergence, 336 h, ECHCG: barnyardgrass (Echinochloa crus-galli), 140 g ai/ha, 14 days after application, read-out: Visual Growth Reduction (%) 14 Days After Application, ECHCG
row,Compound,pest or weed control at 140 g/ha [%]
1,"COC(=O)c1nc(-c2ccc(Cl)c3c2OC(F)(F)O3)ccc1Cl [F68, Methyl 3-chloro-6-(7-chloro-2,2-difluorobenzo[d] [1,3]dioxol-4-yl)picolinate]",0 to 29
2,"COC(=O)c1nc(-c2c(Cl)cc(C(F)(F)F)cc2SC)ccc1Cl [F122, methyl 3-chloro-6-(2-chloro-6-(methylthio)-4-(trifluoromethyl)phenyl)picolinate]",45 to 59

# Same assay, conditions: post-emergence, 336 h, IPOHE: ivy-leaf morning glory (Ipomoea hederacea), 140 g ai/ha, 14 days after application, read-out: Visual Growth Reduction (%) 14 Days After Application, IPOHE
row,Compound,pest or weed control at 140 g/ha [%]
1,"COC(=O)c1nc(-c2ccc(Cl)c3c2OC(F)(F)O3)ccc1Cl [F68, Methyl 3-chloro-6-(7-chloro-2,2-difluorobenzo[d] [1,3]dioxol-4-yl)picolinate]",0 to 29
2,"COC(=O)c1nc(-c2c(Cl)cc(C(F)(F)F)cc2SC)ccc1Cl [F122, methyl 3-chloro-6-(2-chloro-6-(methylthio)-4-(trifluoromethyl)phenyl)picolinate]",95 to 100

# Same assay, conditions: post-emergence, 336 h, KCHSC: kochia (Bassia scoparia), 140 g ai/ha, 14 days after application, read-out: Visual Growth Reduction (%) 14 Days After Application, KCHSC
row,Compound,pest or weed control at 140 g/ha [%]
1,"COC(=O)c1nc(-c2ccc(Cl)c3c2OC(F)(F)O3)ccc1Cl [F68, Methyl 3-chloro-6-(7-chloro-2,2-difluorobenzo[d] [1,3]dioxol-4-yl)picolinate]",0 to 29
2,"COC(=O)c1nc(-c2c(Cl)cc(C(F)(F)F)cc2SC)ccc1Cl [F122, methyl 3-chloro-6-(2-chloro-6-(methylthio)-4-(trifluoromethyl)phenyl)picolinate]",75 to 84

# Same assay, conditions: post-emergence, 336 h, ORYSA: rice (Oryza sativa), 140 g ai/ha, 14 days after application, read-out: Visual Growth Reduction (%) 14 Days After Application, ORYSA
row,Compound,pest or weed control at 140 g/ha [%]
1,"COC(=O)c1nc(-c2ccc(Cl)c3c2OC(F)(F)O3)ccc1Cl [F68, Methyl 3-chloro-6-(7-chloro-2,2-difluorobenzo[d] [1,3]dioxol-4-yl)picolinate]",0 to 29
2,"COC(=O)c1nc(-c2c(Cl)cc(C(F)(F)F)cc2SC)ccc1Cl [F122, methyl 3-chloro-6-(2-chloro-6-(methylthio)-4-(trifluoromethyl)phenyl)picolinate]",0 to 29

# Same assay, conditions: post-emergence, 336 h, SETFA: giant foxtail (Setaria faberi), 140 g ai/ha, 14 days after application, read-out: Visual Growth Reduction (%) 14 Days After Application, SETFA
row,Compound,pest or weed control at 140 g/ha [%]
1,"COC(=O)c1nc(-c2ccc(Cl)c3c2OC(F)(F)O3)ccc1Cl [F68, Methyl 3-chloro-6-(7-chloro-2,2-difluorobenzo[d] [1,3]dioxol-4-yl)picolinate]",0 to 29
2,"COC(=O)c1nc(-c2c(Cl)cc(C(F)(F)F)cc2SC)ccc1Cl [F122, methyl 3-chloro-6-(2-chloro-6-(methylthio)-4-(trifluoromethyl)phenyl)picolinate]",85 to 94

# Same assay, conditions: post-emergence, 336 h, SORVU: grain sorghum (Sorghum vulgare), 140 g ai/ha, 14 days after application, read-out: Visual Growth Reduction (%) 14 Days After Application, SORVU
row,Compound,pest or weed control at 140 g/ha [%]
1,"COC(=O)c1nc(-c2ccc(Cl)c3c2OC(F)(F)O3)ccc1Cl [F68, Methyl 3-chloro-6-(7-chloro-2,2-difluorobenzo[d] [1,3]dioxol-4-yl)picolinate]",0 to 29
2,"COC(=O)c1nc(-c2c(Cl)cc(C(F)(F)F)cc2SC)ccc1Cl [F122, methyl 3-chloro-6-(2-chloro-6-(methylthio)-4-(trifluoromethyl)phenyl)picolinate]",75 to 84

# Same assay, conditions: post-emergence, 336 h, STEME: common chickweed (Stellaria media), 140 g ai/ha, 14 days after application, read-out: Visual Growth Reduction (%) 14 Days After Application, STEME
row,Compound,pest or weed control at 140 g/ha [%]
1,"COC(=O)c1nc(-c2ccc(Cl)c3c2OC(F)(F)O3)ccc1Cl [F68, Methyl 3-chloro-6-(7-chloro-2,2-difluorobenzo[d] [1,3]dioxol-4-yl)picolinate]",0 to 29
2,"COC(=O)c1nc(-c2c(Cl)cc(C(F)(F)F)cc2SC)ccc1Cl [F122, methyl 3-chloro-6-(2-chloro-6-(methylthio)-4-(trifluoromethyl)phenyl)picolinate]",0 to 29

# Same assay, conditions: post-emergence, 336 h, TRZAS: wheat, spring (Triticum aestivum), 140 g ai/ha, 14 days after application, read-out: Visual Growth Reduction (%) 14 Days After Application, TRZAS
row,Compound,pest or weed control at 140 g/ha [%]
1,"COC(=O)c1nc(-c2c(Cl)cc(C(F)(F)F)cc2SC)ccc1Cl [F122, methyl 3-chloro-6-(2-chloro-6-(methylthio)-4-(trifluoromethyl)phenyl)picolinate]",0 to 29

# Same assay, conditions: post-emergence, 336 h, barnyardgrass (Echinochloa crus-galli), 14 Days After Application, 140 g ai/ha, read-out: Visual Growth Reduction (%) ECHCG
row,Compound,pest or weed control at 140 g/ha [%]
1,"C#Cc1ccc(-c2ccc(Cl)c(C(=O)OC)n2)c(Cl)c1 [F18, Methyl 3-chloro-6-(2-chloro-4-ethynylphenyl) picolinate]",0 to 29

# Same assay, conditions: post-emergence, 336 h, common chickweed (Stellaria media), 14 Days After Application, 140 g ai/ha, read-out: Visual Growth Reduction (%) STEME
row,Compound,pest or weed control at 140 g/ha [%]
1,"C#Cc1ccc(-c2ccc(Cl)c(C(=O)OC)n2)c(Cl)c1 [F18, Methyl 3-chloro-6-(2-chloro-4-ethynylphenyl) picolinate]",0 to 29

# Same assay, conditions: post-emergence, 336 h, giant foxtail (Setaria faberi), 14 Days After Application, 140 g ai/ha, read-out: Visual Growth Reduction (%) SETFA
row,Compound,pest or weed control at 140 g/ha [%]
1,"C#Cc1ccc(-c2ccc(Cl)c(C(=O)OC)n2)c(Cl)c1 [F18, Methyl 3-chloro-6-(2-chloro-4-ethynylphenyl) picolinate]",0 to 29

# Same assay, conditions: post-emergence, 336 h, ivy-leaf morning glory (Ipomoea hederacea), 14 Days After Application, 140 g ai/ha, read-out: Visual Growth Reduction (%) IPOHE
row,Compound,pest or weed control at 140 g/ha [%]
1,"C#Cc1ccc(-c2ccc(Cl)c(C(=O)OC)n2)c(Cl)c1 [F18, Methyl 3-chloro-6-(2-chloro-4-ethynylphenyl) picolinate]",0 to 29

# Same assay, conditions: post-emergence, 336 h, johnsongrass (Sorghum vulgare), 14 Days After Application, 140 g ai/ha, read-out: Visual Growth Reduction (%) SORVU
row,Compound,pest or weed control at 140 g/ha [%]
1,"C#Cc1ccc(-c2ccc(Cl)c(C(=O)OC)n2)c(Cl)c1 [F18, Methyl 3-chloro-6-(2-chloro-4-ethynylphenyl) picolinate]",0 to 29

# Same assay, conditions: post-emergence, 336 h, kochia (Bassia scoparia), 14 Days After Application, 140 g ai/ha, read-out: Visual Growth Reduction (%) KCHSC
row,Compound,pest or weed control at 140 g/ha [%]
1,"C#Cc1ccc(-c2ccc(Cl)c(C(=O)OC)n2)c(Cl)c1 [F18, Methyl 3-chloro-6-(2-chloro-4-ethynylphenyl) picolinate]",0 to 29

# Same assay, conditions: post-emergence, 336 h, rice (Oryza sativa), 14 Days After Application, 140 g ai/ha, read-out: Visual Growth Reduction (%) ORYSA
row,Compound,pest or weed control at 140 g/ha [%]
1,"C#Cc1ccc(-c2ccc(Cl)c(C(=O)OC)n2)c(Cl)c1 [F18, Methyl 3-chloro-6-(2-chloro-4-ethynylphenyl) picolinate]",0 to 29

# Same assay, conditions: post-emergence, 336 h, wheat, spring (Triticum aestivum), 14 Days After Application, 140 g ai/ha, read-out: Visual Growth Reduction (%) TRZAS
row,Compound,pest or weed control at 140 g/ha [%]
1,"C#Cc1ccc(-c2ccc(Cl)c(C(=O)OC)n2)c(Cl)c1 [F18, Methyl 3-chloro-6-(2-chloro-4-ethynylphenyl) picolinate]",0 to 29
